Source: paper PMC11123773, “Identification of New Substrates and Inhibitors of Human CYP2A7” (Molecules, 2024)
Substitutions are numbered along the chain they refer to. Where two headings read alike, the source gives them in different places.

Assays:
CYP2A6*1 [1] = molecular target: T1, CYP2A6*1 (Homo sapiens, UniProt P11509); test: in vitro
T1 sequence (P11509 1-494): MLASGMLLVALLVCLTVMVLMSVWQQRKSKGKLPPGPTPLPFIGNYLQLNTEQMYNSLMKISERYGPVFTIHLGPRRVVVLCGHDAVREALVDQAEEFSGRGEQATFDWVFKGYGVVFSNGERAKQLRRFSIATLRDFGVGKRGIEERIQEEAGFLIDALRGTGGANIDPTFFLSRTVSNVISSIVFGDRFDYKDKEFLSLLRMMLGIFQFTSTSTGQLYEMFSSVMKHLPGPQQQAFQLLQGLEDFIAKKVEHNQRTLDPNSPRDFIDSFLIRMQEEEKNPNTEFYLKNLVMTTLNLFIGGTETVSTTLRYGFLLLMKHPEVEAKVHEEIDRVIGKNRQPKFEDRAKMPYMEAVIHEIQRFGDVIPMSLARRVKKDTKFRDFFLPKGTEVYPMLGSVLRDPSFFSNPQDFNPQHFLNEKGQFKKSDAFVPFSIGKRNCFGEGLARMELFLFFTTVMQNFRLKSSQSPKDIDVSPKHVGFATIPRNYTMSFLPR

CYP2A7*1 [2] = molecular target: T2, CYP2A7*1 (Homo sapiens, UniProt P20853); test: in vitro
T2 sequence (P20853 1-494): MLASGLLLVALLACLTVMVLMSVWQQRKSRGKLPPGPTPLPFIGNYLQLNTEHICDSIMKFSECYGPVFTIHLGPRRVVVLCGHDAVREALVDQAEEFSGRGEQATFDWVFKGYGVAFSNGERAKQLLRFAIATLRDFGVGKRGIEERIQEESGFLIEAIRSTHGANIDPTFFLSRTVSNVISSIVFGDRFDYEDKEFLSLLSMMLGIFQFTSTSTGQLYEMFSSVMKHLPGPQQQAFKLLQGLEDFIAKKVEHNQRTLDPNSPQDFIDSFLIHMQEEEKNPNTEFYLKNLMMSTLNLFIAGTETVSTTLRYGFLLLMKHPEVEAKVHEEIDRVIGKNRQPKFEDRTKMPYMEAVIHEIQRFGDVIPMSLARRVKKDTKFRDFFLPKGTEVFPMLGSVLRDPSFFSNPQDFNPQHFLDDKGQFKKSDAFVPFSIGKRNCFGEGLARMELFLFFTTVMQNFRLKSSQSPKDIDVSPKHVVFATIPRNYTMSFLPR

CYP2A7-WT [3] = molecular target: T3, CYP2A7-WT (Homo sapiens, UniProt P20853, D169E/H274R/R311C/V479G); test: in vitro
T3 sequence (P20853 1-494 D169E/H274R/R311C/V479G): T2 sequence (P20853 1-494) with D169E, H274R, R311C, V479G

CYP2A7-WT [4] = molecular target: T3, CYP2A7-WT; test: Fluorescence detection of coumarin 7-hydroxylation and deethylation of 7-ethoxycoumarin; type: biochemical; set-up: expressed in transfected cells; host or cells: Schizosaccharomyces pombe strain AA01 (pREP1-CYP2A7-WT in CAD62), permeabilized cells (enzyme bags); settings: by CYP2A7-WT; fluorometric
Protocol: (§1) The fluorescence activity of CYP enzymes was measured as described with slight modifications. The solution was shaken at 37 °C for 3 h in the dark at a 50 µL final reaction volume. Afterwards, reactions were stopped by adding 350 µL ethyl acetate. The reaction tubes were vortexed for 5 min before centrifugation at 16,000× g for 8 min. Finally, 200 µL of the upper phase was extracted three times with 350 µL of ethyl acetate each. In the last step, the reaction tubes were air-dried in the dark. For reconstituting the pellet we added 50 µL of methanol, which was later followed by the addition of 250 µL of 0.01 M NaOH. The amounts of de-ethylated products were quantified by using standard solutions of 7-hydroxycoumarin and 7-ethoxycoumarin. The concentrations of 7-hydroxycoumarin were determined fluorometrically with 50 µL volume using Grenier microlon flat-bottom 96-well black plates. The energies for excitation and emission were set at 368 and at 530 nm, respectively. All readings were taken in triplicate.

CYP2A6*1 [5] = molecular target: T1, CYP2A6*1; test: as above; type: biochemical; set-up: expressed in transfected cells; host or cells: Schizosaccharomyces pombe strain RAJ122 (pREP1-CYP2A6*1 in CAD62), permeabilized cells (enzyme bags); settings: by CYP2A6*1; fluorometric
Protocol: as §1

CYP2A7*1 [6] = molecular target: T2, CYP2A7*1; test: as above; type: biochemical; set-up: expressed in transfected cells; host or cells: Schizosaccharomyces pombe strain RAJ127 (pREP1-CYP2A7*1 in CAD62), permeabilized cells (enzyme bags); settings: by CYP2A7*1; fluorometric
Protocol: as §1

CYP2A7-WT [7] = molecular target: T3, CYP2A7-WT; test: Conversion of luminogenic (proluciferin) substrates by permeabilized fission yeast cells (enzyme bags); type: biochemical; set-up: expressed in transfected cells; host or cells: Schizosaccharomyces pombe strain AA01 (pREP1-CYP2A7-WT in CAD62), permeabilized cells (enzyme bags); settings: for Luminescence (RLU): enzyme CYP2A7-WT coexpressed with CPR, compound as substrate, 3 h, 37 °C, mean ± SD
Protocol: (§2) Briefly, a concentrated CYP reaction mixture (containing a fourfold concentrated substrate and potassium phosphate buffer) was added to the cell pellets after the permeabilization and washing process. For inhibition assays, the CYP reaction mixtures with the inhibitors at a final concentration of 10 µM were pre-incubated at 37 °C for 10 min. CYP reactions were commenced by adding the twofold concentrated NADPH regeneration system. Samples were incubated for 3 h at 37 °C and 1000 rpm. After centrifugation at 16,000× g for 1 min, the supernatants were transferred to the white microtiter plates and an equal amount of reconstituted luciferin detection reagent was added to each well. Plates were then incubated at room temperature for 20 min and the luminescence was recorded on a Magellan infinite 200Pro microplate reader (Tecan; Männedorf, Switzerland). For the proluciferin substrates’ screening, the specific reaction conditions and substrate concentrations were as given in the instructions of the manufacturer (Promega). […] For inhibitor assays, ketoconazole, 1-benzylimidazole, and letrozole were added to a final concentration of 10 µM. All measurements were done at least three times in triplicates.

CYP2A7*1 [8] = molecular target: T2, CYP2A7*1; test: as above; type: biochemical; set-up: expressed in transfected cells; host or cells: Schizosaccharomyces pombe strain RAJ127 (pREP1-CYP2A7*1 in CAD62), permeabilized cells (enzyme bags); settings: for Conversion of luminogenic substrate (in words): by CYP2A7*1, vs. negative control (CPR only); for Luminescence (RLU): enzyme CYP2A7*1 coexpressed with CPR, compound as substrate, 3 h, 37 °C, mean ± SD
Protocol: as §2

CYP2A6*1 [9] = molecular target: T1, CYP2A6*1; settings: by CYP2A6*1, vs. negative control (CPR only)
Protocol: This was performed as described previously with slight modifications. Briefly, fission yeast cells were cultured on EMM plates with 5 µM thiamine for 3 days at 30 °C. A single yeast colony was then transferred to a 10 mL liquid culture of EMM without thiamine and cultured at 30 °C and 230 rpm for 36 h. As the recombinant expression of the human enzymes is controlled by the strong endogenous nmt1 promoter, all subsequent cultures were cultured in the absence of thiamine to keep the promoter in an active state. For each activity assay, 5 × 10^7 cells (stationary growth phase) were transferred to 1.5 mL Eppendorf tubes (Axygen; Silicon Valley, USA), pelleted, and incubated in 1 mL of 0.3% Triton-X100 in Tris-KCl buffer (200 mM KCl, 100 mM Tris-HCl pH 7.8) at room temperature for 60 min at 150 rpm for permeabilization. After three washes with 1 mL NH4HCO3 buffer (50 mM, pH 7.8), cells were resuspended in phosphate buffer (pH 7.4) and then the substrate and the NADPH regeneration system were added to a total volume of 50 µL. The samples were incubated at 37 °C and 1000 rpm for 3 h. […]
This was performed as described previously with slight modifications. […] Plates were then incubated at room temperature for 20 min and the luminescence was recorded on a Magellan infinite 200Pro microplate reader (Tecan; Männedorf, Switzerland). […]

CYP2A6*1 [10] = molecular target: T1, CYP2A6*1; settings: by CYP2A6*1; nicotine 250 µM
Protocol: (§3) This was performed as described previously with slight modifications. Briefly, fission yeast cells were cultured on EMM plates with 5 µM thiamine for 3 days at 30 °C. A single yeast colony was then transferred to a 10 mL liquid culture of EMM without thiamine and cultured at 30 °C and 230 rpm for 36 h. As the recombinant expression of the human enzymes is controlled by the strong endogenous nmt1 promoter, all subsequent cultures were cultured in the absence of thiamine to keep the promoter in an active state. For each activity assay, 5 × 10^7 cells (stationary growth phase) were transferred to 1.5 mL Eppendorf tubes (Axygen; Silicon Valley, USA), pelleted, and incubated in 1 mL of 0.3% Triton-X100 in Tris-KCl buffer (200 mM KCl, 100 mM Tris-HCl pH 7.8) at room temperature for 60 min at 150 rpm for permeabilization. After three washes with 1 mL NH4HCO3 buffer (50 mM, pH 7.8), cells were resuspended in phosphate buffer (pH 7.4) and then the substrate and the NADPH regeneration system were added to a total volume of 50 µL. The samples were incubated at 37 °C and 1000 rpm for 3 h. For LC-MS analysis, the reaction mixture was extracted with an equal amount of ethyl acetate by centrifugation, and the supernatants were stored at −20 °C until use.
(§4) An Agilent HPLC/microTOF-Q II instrument equipped with a LiChrospher 100 RP-18 column was used to carry out all analytical procedures. The mobile phase that we used was a mixture of water with 0.05% formic acid as phase A and 100% acetonitrile as B, run at a constant flow of 0.3 mL/min for 45 min. The gradient used was 0–20 min (80% A: 20% B to 80% B), 20–30 min (100% B), 30–35 min again (100% B), and 35–45 min (80% A: 20% B). We used positive electrospray ionization mode at a capillary voltage of 4.5 kV for mass spectrometry.

CYP2A7*1 [11] = molecular target: T2, CYP2A7*1; settings: by CYP2A7*1; nicotine 250 µM
Protocol: as §3, §4

CYP2A7-WT [12] = molecular target: T3, CYP2A7-WT; settings: by CYP2A7-WT; nicotine 250 µM
Protocol: as §3, §4

[13] = pH 7.4, probe Luciferin-H (100 µM)

`c1ccc(Cn2ccnc2)cc1` [1-Benzyl-imidazole] was tested. Which inhibition at 3 h, 10 µM (CYP2A6*1 [1]) did it give?
The inhibition at 3 h, 10 µM was 64 ± 12%.

And the inhibition at 3 h, 10 µM (CYP2A7*1 [2]; pH 7.4)?
The inhibition at 3 h, 10 µM was 55 ± 11%.

What about the inhibition at 3 h, 10 µM (CYP2A7-WT [3]; pH 7.4) of the same molecule?
The inhibition at 3 h, 10 µM was 80 ± 21%.

What does the source list for `CCOc1ccc2ccc(=O)oc2c1` [7-ethoxycoumarin]?
Conversion to 7-hydroxycoumarin (CYP2A7-WT [4]): no reaction was observed; Conversion to 7-hydroxycoumarin (CYP2A6*1 [5]): confirmed the activity; Conversion to 7-hydroxycoumarin (CYP2A7*1 [6]): no reaction was observed

With `O=c1ccc2ccccc2o1` [Coumarin, coumarin] as the molecule, how does the “Conversion to 7-hydroxycoumarin” value (CYP2A7-WT [4]) read?
Its value is “no reaction was observed”.

And the “Conversion to 7-hydroxycoumarin” value (CYP2A6*1 [5])?
Its value is “confirmed the activity”.

What about the “Conversion to 7-hydroxycoumarin” value (CYP2A7*1 [6]) of the same molecule?
The value was “no reaction was observed”.

`CC(=O)N1CCN(c2ccc(OCC3COC(Cn4ccnc4)(c4ccc(Cl)cc4Cl)O3)cc2)CC1` (centres unmarked) [Ketoconazole] was tested. Which inhibition at 3 h, 10 µM (CYP2A6*1 [1]; probe Luciferin-H (100 µM)) did it give?
The inhibition at 3 h, 10 µM was 70 ± 11%.

And the inhibition at 3 h, 10 µM (CYP2A7*1 [2]; [13])?
The inhibition at 3 h, 10 µM was 74 ± 4%.

And the inhibition at 3 h, 10 µM (CYP2A7-WT [3]; [13])?
Its inhibition at 3 h, 10 µM is 58 ± 17%.

How did the inhibition at 3 h, 10 µM (CYP2A6*1 [1]; probe Luciferin-H (100 µM)) turn out when `N#Cc1ccc(C(c2ccc(C#N)cc2)n2cncn2)cc1` [Letrozole] was run?
The inhibition at 3 h, 10 µM was 64 ± 10%.

And the inhibition at 3 h, 10 µM (CYP2A7*1 [2]; [13])?
Its inhibition at 3 h, 10 µM is 78 ± 7%.

What about the inhibition at 3 h, 10 µM (CYP2A7-WT [3]; [13]) of the same molecule?
Its inhibition at 3 h, 10 µM is 72 ± 13%.

Which “Luminescence (RLU)” value (CYP2A7-WT [7]) does the source give for `O=C(O)[C@H]1CSC(c2nc3ccc(OCc4ccccc4)cc3s2)=N1` [Luciferin-BE] here?
Its value is 6312 ± 699 RLU.

And the “Conversion of luminogenic substrate (in words)” value (“Conversion … (in words)” for short) (CYP2A7*1 [8])?
Its value is “are CYP2A7*1 substrates”.

And the “Luminescence (RLU)” value (CYP2A7*1 [8])?
The value was 16,216 ± 369 RLU.

How did the “Conversion … (in words)” value (CYP2A6*1 [9]) turn out when `COc1ccc2nc(C3=NC(C(=O)O)CS3)sc2c1` (centres unmarked) [Luciferin-ME] was run?
Its value is “can both metabolize”.

What about the “Conversion … (in words)” value (CYP2A7-WT [7]; by CYP2A7-WT, vs. negative control (CPR only)) of the same molecule?
Its value is “also acted on both substrates”.

What about the “Luminescence (RLU)” value (CYP2A7-WT [7]) of the same molecule?
The value was 439 ± 113 RLU.

And the “Conversion … (in words)” value (CYP2A7*1 [8])?
Its value is “can both metabolize”.

And the “Luminescence (RLU)” value (CYP2A7*1 [8])?
The value was 276 ± 63 RLU.

`CN1CCC[C@H]1c1cccnc1` [nicotine] was tested. Which “Metabolization of nicotine to the nicotine iminium ion” value (from here on “Metabolization of nicotine”) (CYP2A6*1 [10]) did it give?
Its value is “confirmed the metabolization”.

What about the “Metabolization of nicotine” value (CYP2A7*1 [11]) of the same molecule?
Its value is “no nicotine metabolite was found”.

And the “Metabolization of nicotine” value (CYP2A7-WT [12])?
Its value is “no nicotine metabolite was found”.
